Experimental data published in patent US7638678B2, “Animal model for perimenopause and menopause and methods of inducing ovarian failure” (The Arizona Board of Regents, priority 2002, dated 2009).
“Also recorded” adds a separate entry of the source.

Assays:
[1] = system: ovarian follicles (primordial, primary, secondary, antral); experiment: Histology and follicle counting after VCD dosing; type: in vivo, B6C3F1 mice
Method: (§1) Treatment: Immature mice (d28) were weighed and injected i.p. with either 80 mg/kg (1, 2, or 3 times daily), 160 mg/kg (1 or 2 times daily), or 240 mg/kg (once daily) with VCD or sesame oil (vehicle control, i.p.) for 15 d resulting in a total daily exposure of 80, 160, 240, or 320 mg/kg (n=6/group). All reagents were obtained from Sigma-Aldrich (St. Louis, Mo.). Estrous cycles of each animal were monitored daily by vaginal cytology from date of vaginal opening to persistent diestrus in VCD-treated mice, and from date of vaginal opening to d120 in controls. On d8, d10, d12, d14, d15, d30, d37, d46, d57 and d120, animals were weighed, euthanized by CO2 inhalation, and the ovaries, liver and trunk blood were collected. Plasma was separated from whole blood and stored at −20° C., and liver tissues were stored at −80° C. At each time point, adrenals, kidneys, uteri, ovaries, liver, and spleen were removed, grossly examined for lesions and wet tissue weights were recorded. Additional blood samples were collected by retro-orbital puncture and plasma was collected and stored on d58, d79, d91, and d100.
(§2) Histology and oocyte counting: Ovaries were trimmed of fat and placed in Bouin's fixative (2 hours), transferred to 70% ethanol, paraffin-embedded and serially sectioned (4-5 μm), mounted and stained with hematoxylin and eosin. In every 20th section (10-13 sections per ovary), pre-antral follicles were classified as primordial (oocyte surrounded by a single layer of flattened granulosa cells), primary (oocyte surrounded by a single layer of cuboidal cells), secondary (oocyte surrounded by multiple layers of granulosa cells) or antral follicles (follicles containing a fluid-filled antrum). Femora were collected on d58 from both control and VCD-treated animals, fixed in 4% paraformaldehyde, transferred to formaldehyde/formic acid (Cal-Rite, Richard Allan Scientific, Kalamazoo, […]., decalcified 24 hours, vacuum embedded in paraffin and 4.5 μm sections of distal metaphysis were prepared and stained with hematoxylin and eosin.
Data Analysis: Oocyte numbers were determined in ovaries from individual animals, averaged, and the means (±SEM) in control versus treated animals were analyzed for significant differences by one-way analysis of variance (ANOVA) with significance set at p<0.05. Post-hoc tests (Tukey-Kramer) were used where appropriate. The differences in plasma hormone concentrations among treatments were analyzed using a one-way ANOVA. The correlation coefficient was determined by regression analysis.

[2] = system: 17β-estradiol; experiment: Plasma 17β-estradiol radioimmunoassay; type: in vivo, B6C3F1 mice; conditions: 160 mg/kg 15 d, d37 through d91
Method: as §1, with “Plasma was separated from whole blood and stored at −20° C., and liver tissues were stored at −80° C.” left out, “Additional blood samples were collected by retro-orbital puncture and plasma was collected and stored on d58, d79, d91, and d100.” left out
Hormone Assays: Plasma FSH was measured by radioimmunoassay (RIA). […] Tubes were centrifuged for 15 minutes at 3000 rpm, supernatant was decanted and pellets were counted in a gamma counter for 1 minute each. […] Plasma 17β-estradiol was measured in unextracted plasma by radioimmunoassay (Diagnostic Products Inc., CA). […] Circulating androstenedione was measured by specific RIA. […] The results of all RIAs were calculated by four-parameter logistic analysis using the software AssayZap (BioSoft, Ferguson, Mo.). […]

[3] = system: ovarian follicles; conditions: mice, cited from earlier work
[4] = system: liver enzymes AST and ALT, hepatocellular vacuolar degeneration, plasma lipids; experiment: Assessment of hepatic function and plasma lipids; type: in vivo, B6C3F1 mice
Method: Assessment of Hepatic Function: Hepatocellular vacuolar degeneration and enzymatic activity of circulating aspartate aminotransferase (AST) and alanine aminotransferase (ALT) were determined by the Diagnostic Laboratory of the Arizona Health Sciences Center. Total cholesterol and triglycerides were quantified using Sigma reagents 401-25P and 344-20 respectively. HDL was measured by precipitating apoB-containing lipoproteins (Boehringer Mannheim reagent 543004) and assaying cholesterol in the supernatant fraction using the Sigma 401-25P reagent.

[5] = Tolerability of VCD dosing regimens; type: in vivo, mice
[6] = system: femur; experiment: Femur histology; type: in vivo, B6C3F1 mice; conditions: 160 mg/kg 15 d, femora d58
Method: as §2

[7] = system: FSH; experiment: Plasma FSH radioimmunoassay; type: in vivo, B6C3F1 mice; conditions: 160 mg/kg 15 d
Method: as §1
Hormone Assays: Plasma FSH was measured by radioimmunoassay (RIA). Rat FSH hormone antigen, rat FSH antiserum and mouse FSH reference preparation were purchased from the National Institute of Diabetes and Digestive and Kidney diseases. Iodination reagents (Iodo-Beads™28665, 28666) were purchased from Pierce (Rockford Ill.). Briefly, a standard curve was prepared and cold standards and samples (100 μl) were added to labeled tubes along with primary antibody (1:1400 dilution) and iodinated FSH. Samples were shaken and stored at 4 C overnight. On day 2, 100 μl secondary antibody (Sigma Chemical, cat. # R9133) was added (1:10) dilution along with 200 μl of 2% normal rabbit serum and incubated at room temperature for 5 minutes. Tubes were centrifuged for 15 minutes at 3000 rpm, supernatant was decanted and pellets were counted in a gamma counter for 1 minute each. All samples were run in duplicate. The mean sensitivity of the assay was 200 pg/ml and inter- and intra-assay coefficients of variation were 2.7% and 6.7% respectively. Plasma 17β-estradiol was measured in unextracted plasma by radioimmunoassay (Diagnostic Products Inc., CA). The mean sensitivity of the assay was 5.1 pg/ml. The intra-assay coefficient of variation was 5.3%. Circulating androstenedione was measured by specific RIA. Androstenedione standards and antibody were provided by Dr. Cheryl Dyer (Northern Arizona University). The mean sensitivity of the assay was 70 pg/ml with an inter-assay coefficient of variation of 5.3%. The results of all RIAs were calculated by four-parameter logistic analysis using the software AssayZap (BioSoft, Ferguson, Mo.). Results are the mean±SEM.

[8] = system: estrous cycle; experiment: Estrous cyclicity by vaginal cytology; type: in vivo, B6C3F1 mice; conditions: 160 mg/kg i.p.
Method: as §1

[9] = system: ovarian follicles; conditions: cited from earlier work
[10] = cited from earlier work
[11] = 240 mg/kg (80 mg/kg 3× daily), 15 d, d15
[12] = 240 mg/kg (240 mg/kg 1× daily), 15 d, d15
[13] = 320 mg/kg (160 mg/kg 2× daily), 15 d, d15

## C1CC2OC2CC1C1CO1 (stereo not shown) [VCD, 4-vinylcyclohexene diepoxide]
[1]; 80 mg/kg i.p. daily, 15 d, d15
  Primary follicles: 38.6 % of control
[1]; 80 mg/kg i.p. daily, 15 d, ovaries d15
  Primordial follicles: 12.1 % of control
[1]; 160 mg/kg (80 mg/kg 2× daily), 15 d, d15
  Primary follicles: 11.3 % of control
[1]; 160 mg/kg (80 mg/kg 2× daily, and 160 mg/kg 1× daily), 15 d, d15
  Primordial follicles: 0 % of control
[1]; 160 mg/kg (160 1× daily), 15 d, d15
  Primary follicles: 2.8 % of control
[1]; 160 mg/kg i.p. 15 d, d46
  Antral follicles on d46: 2.6 % of control
  Primary follicles on d46: 0.5 % of control
  Primordial follicles on d46: no primordial follicles
  Secondary follicles on d46: 0.7 % of control
[1]; 160 mg/kg i.p., d8-d30
  Primary and primordial follicle numbers over time: reduced (p<0.05) primary and primordial follicle numbers progressively over time
[1]; 160 mg/kg, 15 d, d15-d46
  Antral follicle numbers: progressively reduced
[1]; 160 mg/kg, injected 1× daily
  Primordial follicle loss at the optimal concentration: complete loss of primordial follicles
[1]; [11]
  Primary follicles: 5.1 % of control
  Primordial follicles: 2.1 % of control
[1]; [12]
  Primary follicles: 0 % of control
  Primordial follicles: 0 % of control
[1]; [13]
  Primary follicles: 0.6 % of control
  Primordial follicles: 0 % of control
[2]
  Plasma levels of 17β-estradiol: below the limit of detection
[3]; 12 days of dosing
  Number of primordial and primary follicles compared to vehicle controls: significant reduction
[3]; 30 days of dosing
  Numbers of secondary follicles: significant reduction
[4]; 160 mg/kg 15 d, d1-d46
  Circulating alanine aminotransferase (ALT): not different from controls; also recorded: within the normal range
  Circulating aspartate aminotransferase (AST): not different from controls; also recorded: within the normal range
[4]; d10, d15 and d37
  Total plasma cholesterol, HDL and triglycerides: within the normal range
[4]; naive, vehicle-treated control or VCD-treated mice, any time
  Occurrence of hepatocellular vacuolar degeneration: no difference
[5]; 160 mg/kg/d i.p. for 15 d
  Adverse effects of the single daily injection regimen: without adverse effects
[5]; 2400 mg/kg single bolus
  Outcome of total dose injected in a single bolus: died and die within hours
[5]; 3 times a day @ 80 mg/kg (total 240 mg/kg/d)
  Tolerance of dosing 3 times a day: tolerated VCD as well as mice injected once a day with 160 mg/kg; also recorded: tolerate VCD well
[6]
  Femur morphology relative to controls: enhanced distances from growth plate to distal metaphysis of the femur with increased lucane
[7]; d37
  Plasma FSH: 11.5 ± 5.7 ng/mL
[7]; d46
  Plasma FSH: 14.3 ± 1.3 ng/mL
[7]; d58
  Plasma FSH: 20.2 ± 1.2 ng/mL
[7]; d100
  Plasma FSH: 25.8 ± 0.23 ng/mL
[7]; d120
  Plasma FSH: 25.9 ± 1.1 ng/mL
[7]; d127 (data not shown)
  Plasma FSH: increased (p<0.05) relative to controls
[8]; by d58
  Estrous cyclicity: all animals were acyclic
[8]; d15, irregular = less than 3 d or greater than 5 d
  Animals with irregular cycle length: 7/24
[9]; dermal application in acetone
  Activity on dermal application: active
[9]; oral, dermal, or inhalation exposure
  Follicle loss after other routes of exposure: follicle loss also occurs
[10]
  Water solubility: water soluble
